Results from patent publication US20260294915A1, “COMBINATION THERAPY COMPRISING A MAT2A INHIBITOR AND A TOPOISOMERASE INHIBITOR, A SPLICING INHIBITOR SULFONAMIDE, OR A KIF18 INHIBITOR” (IDEAYA BIOSCIENCES, INC., priority 2023, published 2026).
Each block holds one molecule with its values, some of them ahead of it.

How the values were obtained:
Type in all cases: cell-based
TCCSUP = assay: 10-day proliferation (CTG), Compound B titration + 1000 nM Compound A, Bliss (Example 2); set-up: key: GDI on scale −100 to 100; 0 = cell number at T0
Description: (§1) A 10-day proliferation assay was performed in a panel of 5 MTAP-deficient and 2 wild type non-small cell lung and bladder cancer cell lines. Optimal cell seeding for all cell lines was determined by assessing the growth over a range of seeding densities in a 384-well format to identify conditions that permitted proliferation for 10 days. Cells were then plated at the optimal seeding density and treated with 20-point, two-fold dilution series of Compound B in combination with a 1000 nM fixed concentration of Compound A. Single agent titrations for Compound A and Compound B were included for comparison. Concentrations tested for Compound A and Compound B alone or in combination ranged from 0.038 nM to 20,000 nM. A plate of cells was harvested at the time of compound addition to quantify the number of cells at the start of the combination (T0). For cell quantification, the harvested cells were lysed with Promega CellTiter-Glo (CTG) reagent according to the manufacturer's protocol and the chemiluminescent signal was detected as described in Example 1 above. Cells were incubated with the drug combinations at 37° C. with 5% CO2 for 10 days. Cells were then lysed with CTG and the chemiluminescent signal was measured.
(§2) CTG values obtained after the 10-day treatment were background subtracted and expressed as a percent of the T0 value set at 100%. Data were plotted against compound concentration and fit with a four-parameter equation to generate single agent dose response curves. Percent inhibition was determined for each combination and single agent concentration compared to a DMSO control. In addition, the overall net growth or death of the cells was calculated and reported as a growth death index (GDI) value on a scale of −100 to 100 with the midpoint (0) being the number of cells at the beginning of the combination (T0).
(§3) Synergistic growth inhibition was assessed using the Bliss Independence model for each point of the Compound B titration in combination with 1000 nM Compound A. The observed growth inhibition at each point was compared to the predicted inhibition based on the additive activity of each single agent. Predicted inhibition was calculated using (Ea+Eb)−(Ea*Eb) where E equals the effect (inhibition) of each single agent (a and b). A difference between the observed inhibition percentage and the predicted inhibition percentage greater than 10% was considered synergistic. A Bliss score was only calculated for combinations eliciting >20% growth inhibition (GDI value <80). Since Bliss is calculated based on growth inhibition, scores within cytotoxic dose ranges may not accurately reflect synergistic cytotoxicity.
(§4) Synergy was measured across the Compound B titration with 1000 nM Compound A by Bliss Independence analysis. Bliss scores >10 are indicated by “*” and are considered synergistic. […] Synergy as reported using Bliss may be underrepresented within cytotoxic dose ranges. Growth death index values are shown for the combination titration and each single agent Compound A (Cmpd A) and Compound B (Cmpd B) on a scale of −100 to 100 with the midpoint (0) being the number of cells at the beginning of the combination (T0). Bliss and GDI values are shown for five MTAP-deficient cell lines: NCI-1H520 (6A), TCCSUP (6B).

NCI-H520 = assay: as above; set-up: key: GDI on scale −100 to 100; 0 = cell number at T0
Description: as §1, §2, §3, §4

UMUC11 = assay: 10-day proliferation (CTG), equimolar Compound A + Compound B (Example 1); settings: 240 h, 10 days, single agent or 1:1 combo; for IC30: read-out: gIC30; for IC40: read-out: gIC40; for IC50: read-out: gIC50; for IC60: read-out: gIC60; for IC70: read-out: gIC70; for IC80: read-out: gIC80; for IC90: read-out: gIC90; for IC100: read-out: gIC100
Description: (§5) A 10-day proliferation assay was performed in a panel of 5 MTAP-deficient and 2 wild type non-small cell lung and bladder cancer cell lines. Optimal cell seeding for all cell lines was determined by assessing the growth over a range of seeding densities in a 384-well format to identify conditions that permitted proliferation for 10 days. Cells were then plated at the optimal seeding density and treated with 20-point, two-fold dilution series of Compound A, sovilnesib (“Compound B”), or an equimolar combination of Compound A and Compound B. Concentrations tested for Compound A and Compound B alone or in combination ranged from 0.038 nM to 20,000 nM. A plate of cells was harvested at the time of compound addition to quantify the number of cells at the start of the combination (T0). For cell quantification, the harvested cells were lysed with Promega CellTiter-Glo (CTG) reagent according to the manufacturer's protocol and the chemiluminescent signal was detected on a Synergy Neo plate reader. CTG estimates cell number through detection of cellular ATP levels. Cells were incubated with the drug combinations at 37° C. with 5% CO2 for 10 days. Cells were then lysed with CTG and the chemiluminescent signal was measured.
(§6) CTG values obtained after the 10-day treatment were background subtracted and expressed as a percent of the T0 value. Data were plotted against compound concentration and fit with a four-parameter equation to generate dose response curves for each single agent and the equimolar combination. Growth ICx (gICx) values ranging from gIC30 to gIC100 were interpolated from the fitted curves. Synergistic growth inhibition was assessed by determination of Combination Index (CI) values at these various points across the titration using the mutually non-exclusive equation [Chou, 1983; Chou, 1981] shown below where A equals the gIC value of Compound A, B equals the gICx value of Compound B, and A+B or B+A equals the gICx value of the equimolar combination. A Combination Index value less than 1.0 was considered synergistic.
(§7) Synergy was measured for equimolar combinations of Compound A and Compound B utilizing the mutually non-exclusive Combination Index equation across gICx values ranging from gIC30-gIC100. Combination Index values are shown for: NCI-H838 (3A), SW900 (3B), RT112/84 (3C), UMUC5 (3D), and UMUC11 (3E).

NCI-H838 = assay: as above; settings: Homo sapiens, NCI-H838, 240 h, 10 days, single agent or 1:1 combo; for IC30: read-out: gIC30; for IC40: read-out: gIC40; for IC50: read-out: gIC50; for IC60: read-out: gIC60; for IC70: read-out: gIC70; for IC80: read-out: gIC80; for IC90: read-out: gIC90; for IC100: read-out: gIC100
Description: as §5, §6, §7

[1] = Cmpd B 0.04 nM, combo: + 1000 nM Cmpd A
[2] = Cmpd B 0.1 nM, combo: + 1000 nM Cmpd A
[3] = Cmpd B 0.2 nM, combo: + 1000 nM Cmpd A
[4] = Cmpd B 0.3 nM, combo: + 1000 nM Cmpd A
[5] = Cmpd B 0.6 nM, combo: + 1000 nM Cmpd A
[6] = Cmpd B 1.2 nM, combo: + 1000 nM Cmpd A
[7] = Cmpd B 2.4 nM, combo: + 1000 nM Cmpd A
[8] = Cmpd B 4.9 nM, combo: + 1000 nM Cmpd A
[9] = Cmpd B 9.8 nM, combo: + 1000 nM Cmpd A
[10] = Cmpd B 19.5 nM, combo: + 1000 nM Cmpd A
[11] = Cmpd B 39.1 nM, combo: + 1000 nM Cmpd A
[12] = Cmpd B 78.1 nM, combo: + 1000 nM Cmpd A
[13] = Cmpd B 156.3 nM, combo: + 1000 nM Cmpd A
[14] = Cmpd B 312.5 nM, combo: + 1000 nM Cmpd A
[15] = Cmpd B 625 nM, combo: + 1000 nM Cmpd A
[16] = Cmpd B 1250 nM, combo: + 1000 nM Cmpd A
[17] = Cmpd B 2500 nM, combo: + 1000 nM Cmpd A
[18] = Cmpd B 5000 nM, combo: + 1000 nM Cmpd A
[19] = Cmpd B 10000 nM, combo: + 1000 nM Cmpd A
[20] = Cmpd B 20000 nM, combo: + 1000 nM Cmpd A

IC50 (NCI-H838): 0.208 µM | IC90 (NCI-H838): 20 µM
Compound: Nc1nc(=O)n(-c2ccccc2Cl)c2nc(C(F)(F)F)ccc12 [Compound A]
GDI (TCCSUP; single agent, 1000 nM Cmpd A): 88 | GDI (NCI-H520; single agent, 1000 nM Cmpd A): 100 | IC30 (UMUC11): 20 µM | IC40 (UMUC11): 20 µM | IC50 (UMUC11): 20 µM | IC60 (UMUC11): 20 µM | IC70 (UMUC11): 20 µM | IC80 (UMUC11): 20 µM | IC90 (UMUC11): 20 µM | IC100 (UMUC11): 20 µM | IC30 (NCI-H838): 0.052 µM | IC40 (NCI-H838): 0.09 µM | IC60 (NCI-H838): 20 µM | IC70 (NCI-H838): 20 µM | IC80 (NCI-H838): 20 µM | IC100 (NCI-H838): 20 µM

IC50 (NCI-H838): 12.5 µM | IC90 (NCI-H838): 20 µM
Compound: Cc1cc(NC(=O)c2ccc(NS(=O)(=O)CCO)cc2N2CCC3(CC2)CC3)nc(N2CCC(F)(F)CC2)n1 [Compound B, N-(2-(4,4-difluoropiperidin-1-yl)-6-methylpyrimidin-4-yl)-4-((2-hydroxyethyl)sulfonamido)-2-(6-azaspiro[2.5]octan-6-yl)benzamide]
GDI (TCCSUP; [1]): 100 | GDI (TCCSUP; [2]): 100 | GDI (TCCSUP; [3]): 100 | GDI (TCCSUP; [4]): 100 | GDI (TCCSUP; [5]): 100 | GDI (TCCSUP; [6]): 100 | GDI (TCCSUP; [7]): 100 | GDI (TCCSUP; [8]): 100 | GDI (TCCSUP; [9]): 100 | GDI (TCCSUP; [10]): 100 | GDI (TCCSUP; [11]): 100 | GDI (TCCSUP; [12]): 76 | GDI (TCCSUP; [13]): 38 | GDI (TCCSUP; [14]): 15 | GDI (TCCSUP; [15]): 8 | GDI (TCCSUP; [16]): 10 | GDI (TCCSUP; [17]): 11 | GDI (TCCSUP; [18]): 6 | GDI (TCCSUP; [19]): −5 | GDI (TCCSUP; [20]): −95 | GDI (NCI-H520; [1]): 100 | GDI (NCI-H520; [2]): 100 | GDI (NCI-H520; [3]): 100 | GDI (NCI-H520; [4]): 100 | GDI (NCI-H520; [5]): 100 | GDI (NCI-H520; [6]): 100 | GDI (NCI-H520; [7]): 100 | GDI (NCI-H520; [8]): 100 | GDI (NCI-H520; [9]): 100 | GDI (NCI-H520; [10]): 100 | GDI (NCI-H520; [11]): 100 | GDI (NCI-H520; [12]): 100 | GDI (NCI-H520; [13]): 100 | GDI (NCI-H520; [14]): 85 | GDI (NCI-H520; [15]): 77 | GDI (NCI-H520; [16]): 92 | GDI (NCI-H520; [17]): 92 | GDI (NCI-H520; [18]): 61 | GDI (NCI-H520; [19]): 17 | GDI (NCI-H520; [20]): −57 | IC30 (UMUC11): 2.2 µM | IC40 (UMUC11): 3.48 µM | IC50 (UMUC11): 5.17 µM | IC60 (UMUC11): 7.3 µM | IC70 (UMUC11): 9.95 µM | IC80 (UMUC11): 13.2 µM | IC90 (UMUC11): 17.1 µM | IC100 (UMUC11): 20 µM | IC30 (NCI-H838): 0.735 µM | IC40 (NCI-H838): 1.48 µM | IC60 (NCI-H838): 14.3 µM | IC70 (NCI-H838): 17 µM | IC80 (NCI-H838): 20 µM | IC100 (NCI-H838): 20 µM
